Experimental data taken from the NIST ThermoML archive (doi:10.1016/j.jct.2005.06.011).

Tests used:
[1] = xn = mol fraction of the nth substance listed; settings: 101 kPa, Liquid; for speed of sound: Linear variable-path acoustic interferometer
[2] = refractive index (Na D-line) (dimensionless); xn = mol fraction of the nth substance listed; settings: 101 kPa, Liquid

CCO [ethanol] + CC1CCCCC1
x2 = 0
Settings	mass density, 298.15 K [kg/m3]	mass density, 303.15 K [kg/m3]	mass density, 308.15 K [kg/m3]	refractive index, 298.15 K	refractive index, 303.15 K	refractive index, 308.15 K	speed of sound, 298.15 K [m/s]	viscosity, 298.15 K [mPa·s]	viscosity, 303.15 K [mPa·s]	viscosity, 308.15 K [mPa·s]
[1]	785.66	781.34	776.99	–	–	–	1161	1.083	0.985	0.8954
[2]	–	–	–	1.3608	1.3589	1.3563	–	–	–	–

CC1CCCCC1 [methylcyclohexane] + CC(C)CCO
x1 = 1
Settings	mass density, 298.15 K [kg/m3]	mass density, 303.15 K [kg/m3]	mass density, 308.15 K [kg/m3]	refractive index, 298.15 K	refractive index, 303.15 K	refractive index, 308.15 K	speed of sound, 298.15 K [m/s]	viscosity, 298.15 K [mPa·s]	viscosity, 303.15 K [mPa·s]	viscosity, 308.15 K [mPa·s]
[1]	764.99	760.66	756.3	–	–	–	1217	0.6757	0.631	0.5902
[2]	–	–	–	1.4217	1.4192	1.4163	–	–	–	–

CC1CCCCC1 [methylcyclohexane] + CC(C)CO
Settings	mass density, 298.15 K [kg/m3]	mass density, 303.15 K [kg/m3]	mass density, 308.15 K [kg/m3]	refractive index, 298.15 K	refractive index, 303.15 K	refractive index, 308.15 K	speed of sound, 298.15 K [m/s]	viscosity, 298.15 K [mPa·s]	viscosity, 303.15 K [mPa·s]	viscosity, 308.15 K [mPa·s]
[1], x1 = 0.1003	802.66	798.47	794.29	–	–	–	1175	2.499	2.17	1.841
[1], x1 = 0.2006	796.44	792.18	787.91	–	–	–	1179	2.037	1.79	1.542
[1], x1 = 0.3008	790.71	786.35	782.02	–	–	–	1183	1.63	1.44	1.248
[1], x1 = 0.4037	785.47	781.09	776.69	–	–	–	1188	1.359	1.209	1.058
[1], x1 = 0.5066	780.72	776.29	771.86	–	–	–	1193	1.12	1.017	0.9138
[1], x1 = 0.6052	776.53	772.08	767.64	–	–	–	1198	0.9911	0.906	0.821
[1], x1 = 0.7038	772.84	768.37	763.92	–	–	–	1202	0.8637	0.7964	0.729
[1], x1 = 0.8025	769.44	764.99	760.54	–	–	–	1207	0.7897	0.7317	0.6738
[1], x1 = 0.9011	766.63	762.18	757.75	–	–	–	1212	0.7162	0.6676	0.6189
[1], x1 = 1	764.99	760.66	756.3	–	–	–	1217	0.6757	0.631	0.5902
[2], x1 = 0.1003	–	–	–	1.397	1.3945	1.392	–	–	–	–
[2], x1 = 0.2006	–	–	–	1.4	1.3975	1.395	–	–	–	–
[2], x1 = 0.3008	–	–	–	1.4031	1.4005	1.3979	–	–	–	–
[2], x1 = 0.4037	–	–	–	1.4059	1.4033	1.4007	–	–	–	–
[2], x1 = 0.5066	–	–	–	1.4088	1.4061	1.4034	–	–	–	–
[2], x1 = 0.6052	–	–	–	1.4114	1.4088	1.4062	–	–	–	–
[2], x1 = 0.7038	–	–	–	1.4141	1.4115	1.409	–	–	–	–
[2], x1 = 0.8025	–	–	–	1.4167	1.414	1.4113	–	–	–	–
[2], x1 = 0.9011	–	–	–	1.4194	1.4165	1.4135	–	–	–	–
[2], x1 = 1	–	–	–	1.4217	1.4192	1.4163	–	–	–	–
